{"source": "paper PMC4383205", "about": "“Structure of a low-population intermediate state in the release of an enzyme product” (eLife, 2015)", "target": "T1, human lysozyme (Homo sapiens, UniProt P61626)", "T1 construct": "gene LYZ; wild type, expressed in Pichia pastoris (residues 1 to 130)", "T1 sequence (P61626 19-148)": "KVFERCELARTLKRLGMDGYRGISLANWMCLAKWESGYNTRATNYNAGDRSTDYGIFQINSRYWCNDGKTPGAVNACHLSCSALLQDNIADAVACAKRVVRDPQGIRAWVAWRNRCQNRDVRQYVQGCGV", "experiment": "SPR (Biacore single chain kinetics); also 1H-15N HSQC NMR titration and RDCs of the bound state", "assay_type": "binding", "data": [{"smiles": "CC(=O)N[C@H]1[C@H](O[C@H]2[C@H](O)[C@@H](NC(C)=O)C(O)O[C@@H]2CO)O[C@H](CO)[C@@H](O[C@@H]2O[C@H](CO)[C@@H](O)[C@H](O)[C@H]2NC(C)=O)[C@@H]1O", "note": "(stereo partly shown) [triNAG, N,N′,N′′-Triacetylchitotriose]", "values": [{"measurement": "Kd", "value": "~9", "unit": "µM"}]}]}
